The structures appear in SMILES notation.

Data set [1] is described as follows: fluorescence spectrum at room temperature. Type of data set: physicochemical. The settings on record: excited at a wavelength. How it is done: (§1) To a single-necked flask is added 300 ml of absolute ethyl alcohol, 6.47 g of 3-bromomethyl phenylboronate indole quaternary ammonium salt, 2-chloro-3-hydroxymethylene cyclohexene carboxaldehyde, and 0.15 g of sodium acetate. The mixture is reacted at 70° C. for 1 h, and spin dried to remove the solvent. The resulting residue is separated by column chromatography, to obtain fluorescent compounds I-1 and I-2. The fluorescent compound I-1 has a maximum fluorescence emission peak at 808 nm when excited at a wavelength of […], and has a near infrared absorption peak in ethanol solution at 785 nm. The fluorescent compound I-2 has a maximum fluorescence emission peak at 811 nm when excited at a wavelength of […], and has a near infrared absorption peak in ethanol solution at 788 nm.

Data set [2] in a line: near-infrared absorption spectrum in ethanol solution. Type of data set: physicochemical. The procedure: FIG. 3 is a near-infrared absorption spectrum of compound I-1 and compound I-2 in Example 4 in ethanol solution.
as §1

As for `CC1(C)C(/C=C/C2=C(Cl)C(=C/C=C3/N(Cc4cccc(B(O)O)c4)c4ccccc4C3(C)C)/CCC2)=[N+](Cc2cccc(B(O)O)c2)c2ccccc21` [Compound I-1], the “maximum fluorescence emission peak” value in data set [1] came out at 808 nm. Moreover, in data set [2], the “near infrared absorption peak” value was 785 nm.

With `CC1(C)C(/C=C/C2=C(Cl)C(=C/C=C3/N(Cc4ccccc4)c4ccccc4C3(C)C)/CCC2)=[N+](Cc2cccc(B(O)O)c2)c2ccccc21` [Compound I-2], in data set [1], the “maximum fluorescence emission peak” value worked out at 811 nm. Besides, the “near infrared absorption peak” value in data set [2] was 788 nm.
